Data reported in patent US7393827B2, “Pharmaceutical compositions and methods for restoring β-cell mass and function” (Diakine Therapeutics, Inc., priority 2004, dated 2008).
Entries after “also recorded” stand apart in the source; their conditions may differ. Where no end group is shown, it is not given here.

What was measured:
[1] = tested on: BALB/c pancreatic islets; assay: Insulin secretion of isolated islets in low and high glucose (EIA/ELISA); format: cell-based, mouse; settings: 3 days culture, LSF 50 μM, Ex-4 20 nM, 3 mM then 28 mM glucose, one-hour incubation
Description: FIG. 1 depicts the amount of insulin in the supernate sample as determined by EIA after one-hour incubation with each of 3 mM and subsequent 28 mM glucose medium.
(§1) For in vitro studies (Examples 1-3), freshly isolated BALB/c pancreatic islets were incubated at 37° C. with either LSF (50 μM) alone, Ex-4 (20 nM) alone, or with LSF/Ex-4 combined. After 3 days of culture, islets were treated with or without pro-inflammatory cytokines (10 ng/mL IL-1β, 20 ng/mL TNF-α, and 100 ng/mL IFN-γ) overnight. Insulin secretion was measured in low and high glucose using a standard elisa method for mouse insulin. Apoptotic islets were quantitatively assessed. MTT assay was used to evaluate cell metabolism and mitochondrial function.
(See FIG. 1 in which “*” and “^” indicate P<0.005 compared to “none” treatment group).

[2] = tested on: mouse islets exposed to pro-inflammatory cytokines (IL-1β, TNF-α, IFN-γ); assay: Apoptosis of mouse islets exposed to pro-inflammatory cytokines; format: cell-based; settings: LSF 50 μM, Ex-4 20 nM; 10 ng/mL IL-1β, 20 ng/mL TNF-α, 100 ng/mL IFN-γ overnight
Description: FIG. 2 depicts the effect in apoptosis reduction in isolated mouse islets after individual and combined treatment of LSF and Ex-4 in vitro.
as §1
Cellular death (apoptosis) was quantified using an established method in mouse islets exposed to pro-inflammatory cytokines.

[3] = tested on: mouse islets; assay: MTT assay of cell metabolism and mitochondrial function in isolated islets; format: cell-based; settings: LSF 50 μM, Ex-4 20 nM
Description: FIG. 3 depicts the effect of mitochondrial metabolism (as reflected by level of MTT metabolite) observed in isolated mouse islets after individual and combined treatment with LSF and Ex-4.
as §1
We previously published, in murine β-cell lines and human islets that both ATP production and mitochondrial metabolism (MTT metabolite levels) were increased by LSF treatment.

[4] = tested on: non-obese diabetic (NOD) mice; assay: Reversal of established diabetes in NOD mice, blood glucose monitoring, 28-day osmotic mini-pump; format: in vivo, mouse; settings: LSF 27 mg/kg/day, Ex-4 18 nM/day
Description: FIG. 4 depicts average levels of blood glucose in 4 NOD mice groups treated with saline (control), Ex-4 alone, LSF alone and LSF and Ex-4 combined, respectively.
Pre-diabetic non-obese diabetic (NOD) mice were monitored until two consecutive blood glucose readings within a week were above 250 mg/dL. This indicated the animals had already become diabetic. At this point a mini-osmotic pump was filled with one of the following and implanted subcutaneously: • Normal saline (control) • Ex-4 • LSF • Ex-4 and LSF
Blood glucose levels in these mice were monitored, and a small dose of insulin was administered to the hyperglycemic mice to maintain euglycemia for the first few days. The pump was removed after 28 days, discontinuing treatment with the drug; however, the blood glucose levels were continually monitored for several more weeks. These mice were then sacrificed, and slide sections were prepared from their pancreases to evaluated histology and insulin staining (Example 5) and evidence for growth the new beta cells (Example 6).
These NOD were spontaneously diabetic between 20-25 weeks of age. The control groups include normal saline, LSF alone (27 mg/kg/day) and Ex-4 alone (18 nM/day). […] Four mice were in each group. Diabetes reversal was seen within 2-3 days after implantation of LSF/Ex-4 pumps, while hyperglycemia was controlled 10-12 days after LSF alone pump therapy.

[5] = tested on: NOD mouse pancreatic sections; assay: Brdu staining of NOD mouse pancreatic sections (cell proliferation in vivo); settings: diabetic NOD mice treated 28 days via mini-pumps; Brdu 50 mg/kg I.P., tissue 24 hours later
Description: FIG. 6 depicts results of Brdu staining of NOD mouse pancreatic sections treated with saline (control), Ex-4 alone, LSF alone and LSF and Ex-4 combined, respectively.
Ex-4/LSF-associated cell proliferation in vivo was evaluated. Diabetic NOD mice that were treated with Ex-4 alone, Ex-4 plus LSF, LSF alone and normal saline for 28 days via mini-pumps were injected with Brdu (50 mg/kg) I.P. 24 hours later, pancreatic tissues were collected and stained with an anti-Brdu antibody.

[6] = tested on: murine β-cell lines; settings: previously published; cited from earlier work
[7] = tested on: human islets; settings: previously published; cited from earlier work
[8] = tested on: overt diabetic NOD (Non-Obese Diabetic) mice; settings: previously overt diabetic NOD mice; literature study; cited from earlier work

For `C[C@@H](O)CCCCn1c(=O)c2c(ncn2C)n(C)c1=O` [LSF, Lisofylline], the “insulin release upon glucose stimulation” value [1] was “increase insulin release”, the “protection of islet cells from pro-inflammatory cytokines” value [2] was “could protect isolated islet cells” and the “mitochondrial metabolism (MTT metabolite level)” value [3] was “increase mitochondrial metabolism”. The “time after pump implantation until diabetes reversal / hyperglycemia controlled” value ([4]; diabetic NOD mice, S.C. mini-pump) was 10 to 12 days, the “diabetes reversal / control of hyperglycemia during pump therapy” value ([4]; newly diagnosed diabetic NOD mice, S.C. osmotic mini-pump, 28 days) was “moderate ability to control blood glucose levels; also recorded: prevented worsening of hyperglycemia” and the “Brdu-positive cells in pancreatic tissue” value [5] was “detected”. The “ATP production and mitochondrial metabolism (MTT metabolite levels)” value [6] was “increased” and the “ATP production and mitochondrial metabolism (MTT metabolite levels)” value [7] was “increased”.
For “glucagon-like peptide-1 (HAEGTFTSDVSSYLEGQAAKEFIAWLVKGR; ends and bridges not checked; UniProt P01275 98-127, looked up) [GLP-1, "incretin synthesized in the small and large intestine by the L-type cells ... released in response to food ingestion"]”, the effect on hyperglycemia [8] is listed as “no effect”.
